The supplement of paper PMC8671470
Structures can show the parent of a compound that is named as a salt.

Columns and labels:
Settings in all cases: 72 h
HL-60 [1] = assay: area under dose-response curve (viability, 1 nM-10 uM) (fraction (0-1)); higher = more sensitive
Method in brief: (§1)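 Area under the curve, where listed, was derived from four-parameter log-logistic fits with drc and PharmacoGx. These fits used CellTiter-Glo viability from HL-60 cells in RPMI 1640 with 10% FBS, normalised to DMSO wells and wells holding 10 μM proteasome inhibitor. The full library was rescreened on 384-well plates in duplicate at five tenfold concentrations, 1–10,000 nM, with DMSO or 100 nM of one of three metabolic inhibitors, for 72 h at 37 °C, 5% CO2.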

HL-60 [2] = assay: cell viability (% survival relative to DMSO control); higher = less cytotoxic
Method in brief: as §1

[3] = test system: myeloid leukemia patient primary cells Pat.12; assay: area under dose-response curve (viability, 1 nM-10 uM) (fraction (0-1)); higher = more sensitive
Description: (§2)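 AUC (0–1, higher = more sensitive) of the 5-point dose–response (1 nM–10 µM, 72 h, CellTiter-Glo) in primary AML/CML patient mononuclear cells. 0.030103 is the floor for inactive compounds.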

[4] = test system: myeloid leukemia patient primary cells Pat.14; assay: as above
Description: as §2

[5] = test system: myeloid leukemia patient primary cells Pat.10; assay: as above
Description: as §2

[6] = test system: myeloid leukemia patient primary cells Pat.15; assay: as above
Description: as §2

[7] = test system: myeloid leukemia patient primary cells Pat.9; assay: as above
Description: as §2

[8] = test system: myeloid leukemia patient primary cells Pat.1; assay: as above
Description: as §2

[9] = test system: myeloid leukemia patient primary cells Pat.3; assay: as above
Description: as §2

[10] = test system: myeloid leukemia patient primary cells Pat.6; assay: as above
Description: as §2

[11] = test system: myeloid leukemia patient primary cells Pat.13; assay: as above
Description: as §2

[12] = test system: myeloid leukemia patient primary cells Pat.11; assay: as above
Description: as §2

[13] = test system: myeloid leukemia patient primary cells Pat.4; assay: as above
Description: as §2

[14] = test system: myeloid leukemia patient primary cells Pat.2; assay: as above
Description: as §2

[15] = test system: myeloid leukemia patient primary cells Pat.7; assay: as above
Description: as §2

[16] = test system: myeloid leukemia patient primary cells Pat.5; assay: as above
Description: as §2

[17] = test system: myeloid leukemia patient primary cells Pat.8; assay: as above
Description: as §2

THP-1 = test system: THP-1
Method in brief: (§3)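 Fifteen myeloid leukaemia lines were incubated for 72 h at 37 °C with 5% CO2 across five tenfold doses from 1 to 10,000 nM, in duplicate. ATP luminescence was normalised to vehicle and to a positive control at 10 µM and fitted with a four-parameter log-logistic model. The IC50 came from these dose–response fits.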

HL-60 [18] = test system: HL-60
Method in brief: as §3

KU-812 = test system: KU-812
Method in brief: as §3

MV4-11 = test system: MV4-11
Method in brief: as §3

KG-1 = test system: KG-1
Method in brief: as §3

SHI-1 = test system: SHI-1
Method in brief: as §3

MOLM-13 = test system: MOLM-13
Method in brief: as §3

Mono-Mac-6 = test system: Mono-Mac-6
Method in brief: as §3

BV-173 = test system: BV-173
Method in brief: as §3

LAMA-84 = test system: LAMA-84
Method in brief: as §3

K-562 = test system: K-562
Method in brief: as §3

KCL-22 = test system: KCL-22
Method in brief: as §3

HEL = test system: HEL
Method in brief: as §3

ML-2 = test system: ML-2
Method in brief: as §3

NOMO-1 = test system: NOMO-1
Method in brief: as §3

Cc1cc(CS(=O)(=O)c2ccccc2)cc(OCc2ccc(CN3CCC[C@@H]3CO)cc2)c1 [PF 543 hydrochloride]
HL-60 [1]
Settings | area under dose-response curve
co-treatment: AZD3965 100 nM | < 0.0301
co-treatment: DMSO vehicle | < 0.0301
co-treatment: GSK2194069 100 nM | < 0.0301
co-treatment: pictilisib 100 nM | < 0.0301

cell viability [%], HL-60 [2]
Settings | 0.001 µM | 0.01 µM | 0.1 µM | 1 µM | 10 µM
co-treatment: AZD3965 100 nM | 95.8 | 101 | 100.5 | 95.55 | 96.1
co-treatment: DMSO vehicle | 99.4 | 100 | 103 | 99.8 | 103
co-treatment: GSK2194069 100 nM | 81.7 | 94.56 | 96.8 | 95.1 | 92.2
co-treatment: pictilisib 100 nM | 79.4 | 97.3 | 93.9 | 99.7 | 96.7

CS(=O)(=O)N1CCN(Cc2cc3nc(-c4cccc5[nH]ncc45)nc(N4CCOCC4)c3s2)CC1 [Pictilisib]
Settings | IC50 (cell viability) [µM] | area under dose-response curve
BV-173 | > 10 | –
HEL | > 10 | –
HL-60 [18] | 0.0159 | –
K-562 | 1.27 | –
KCL-22 | > 10 | –
KG-1 | > 10 | –
KU-812 | > 10 | –
LAMA-84 | > 10 | –
ML-2 | 9.06 | –
MOLM-13 | 0.969 | –
MV4-11 | 1.19 | –
Mono-Mac-6 | > 10 | –
NOMO-1 | > 10 | –
SHI-1 | 0.987 | –
THP-1 | > 10 | –
[3] | – | < 0.0301
[4] | – | 0.529
[5] | – | 0.456
[6] | – | 0.439
[7] | – | 0.257
[8] | – | 0.538
[9] | – | 0.519
[10] | – | 0.0368
[11] | – | < 0.0301
[12] | – | 0.0959
[13] | – | 0.294
[14] | – | < 0.0301
[15] | – | 0.507
[16] | – | 0.384
[17] | – | 0.536

CCC(C)(C)C(=O)O[C@H]1C[C@@H](C)C=C2C=C[C@H](C)[C@H](CC[C@@H]3C[C@@H](O)CC(=O)O3)[C@H]21 [Simvastatin]
Settings | IC50 (cell viability) [µM]
BV-173 | > 10
HEL | > 10
HL-60 [18] | > 10
K-562 | > 10
KCL-22 | > 10
KG-1 | > 10
KU-812 | > 10
LAMA-84 | > 10
ML-2 | > 10
MOLM-13 | > 10
MV4-11 | > 10
Mono-Mac-6 | > 10
NOMO-1 | > 10
SHI-1 | > 10
THP-1 | > 10

CCOC(=O)c1ccc(-c2ccc(OC(=O)N(C)Cc3cccc(-c4ccncc4)c3)cc2)cc1 [WWL 113]
cell viability [%], HL-60 [2]
Settings | 0.001 µM | 0.01 µM | 0.1 µM | 1 µM | 10 µM
co-treatment: AZD3965 100 nM | 99.55 | 98.5 | 94 | 97.8 | 101
co-treatment: DMSO vehicle | 106 | 102 | 98.3 | 102.3 | 102
co-treatment: GSK2194069 100 nM | 99.6 | 96 | 86.5 | 97.09 | 101
co-treatment: pictilisib 100 nM | 101.2 | 103 | 85.6 | 96.7 | 101

CC/C=C\C[C@H]1C(=O)CC[C@@H]1CC(=O)OC [methyl jasmonate]
HL-60 [1]
Settings | area under dose-response curve
co-treatment: AZD3965 100 nM | < 0.0301
co-treatment: DMSO vehicle | < 0.0301
co-treatment: GSK2194069 100 nM | < 0.0301
co-treatment: pictilisib 100 nM | < 0.0301

cell viability [%], HL-60 [2]
Settings | 0.001 µM | 0.01 µM | 0.1 µM | 1 µM | 10 µM
co-treatment: AZD3965 100 nM | 98.2 | 106 | 100.7 | 105 | 106
co-treatment: DMSO vehicle | 101 | 99.7 | 97.6 | 102.5 | 102
co-treatment: GSK2194069 100 nM | 95.5 | 99.5 | 98.1 | 93.3 | 105
co-treatment: pictilisib 100 nM | 96.58 | 104 | 101 | 109 | 99.6
